Test results as given in patent US7273880B2, “Selective NPY (Y5) antagonists” (H. Lunbeck A/S, priority 1999, dated 2007).
Counter-ions that a name gives are not always drawn. Values belong to the compound of their own block, whether it stands above or below them.

Molecular target: T1, human Y5 receptor (hNPY-5) (Homo sapiens, UniProt Q15761)
T1 construct: expressed in transfected cells; host or cells: mouse fibroblast LM(tk-) cells, e.g. L-hY5-7 (ATCC CRL-11995)
T1 sequence (Q15761 1-445): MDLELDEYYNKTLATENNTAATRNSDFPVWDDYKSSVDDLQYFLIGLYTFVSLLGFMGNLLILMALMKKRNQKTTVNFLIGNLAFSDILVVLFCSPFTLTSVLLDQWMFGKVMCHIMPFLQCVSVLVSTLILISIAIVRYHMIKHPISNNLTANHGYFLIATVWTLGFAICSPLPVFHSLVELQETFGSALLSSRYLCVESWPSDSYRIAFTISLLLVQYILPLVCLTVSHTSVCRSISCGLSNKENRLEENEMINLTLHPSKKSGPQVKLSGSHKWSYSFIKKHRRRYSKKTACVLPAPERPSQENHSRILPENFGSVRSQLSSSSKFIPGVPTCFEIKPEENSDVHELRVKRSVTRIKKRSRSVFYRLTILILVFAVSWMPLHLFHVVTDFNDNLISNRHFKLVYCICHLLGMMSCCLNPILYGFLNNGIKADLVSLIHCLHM
Assay: Radioligand binding to membranes, cloned human Y5 receptor
Conditions: cloned human NPY Y5 receptor, radioligand competition binding; Tables 1-3; read-out: Ki, nM hNPY-5
Experimental: Binding of the compounds of the present invention to human Y1, Y2, Y4, and Y5 receptors was evaluated using stably transfected 293 or LM(tk-) cells as described above. Stably transfected cell lines which may be used for binding assays include, for example, for the human Y1 receptor, 293-hY1-5 (deposited Jun. 4, 1996, under ATCC Accession No. CRL-12121), for the human Y2 receptor, 293-hY2-10 (deposited Jan. 27, 1994, under ATCC Accession No. CRL-11537), for the human Y4 receptor, L-hY4-3 (deposited Jan. 11, 1995, under ATCC Accession No. CRL-11779), and for human Y5 receptor, L-hY5-7 (deposited Nov. 15, 1995, under ATCC Accession No. CRL-11995). These cell lines were deposited with the American Type Culture Collection (ATCC), 10801 University Blvd., Manassas, Va. 20110-2209, U.S.A. under the provisions of the Budapest Treaty for the International Recognition of the Deposit of Microorganisms for the Purposes of Patent Procedure.
Membranes were harvested from COS-7 cells 48 hours after transient transfection. Adherent cells were washed twice in ice-cold phosphate buffered saline (138 mM NaCl, 8.1 mM Na2HPO4, 2.5 mM KCl, 1.2 mM KH2PO4, 0.9 mM CaCl2, 0.5 mM MgCl2, pH 7.4) and lysed by sonication in ice-cold sonication buffer (20 mM Tris-HCl, 5 mM EDTA, pH 7.7). Large particles and debris were cleared by low speed centrifugation (200×g, 5 min, 4° C.). Membranes were collected from the supernatant fraction by centrifugation (32,000×g, 18 min, 4° C.), washed with ice-cold hypotonic buffer, and collected again by centrifugation (32,000×g, 18 min, 4° C.). The final membrane pellet was resuspended by sonication into a small volume of ice-cold binding buffer (˜1 ml for every 5 plates: 10 mM NaCl, 20 mM HEPES, 0.22 mM KH2PO4, 1.26 mM CaCl2, 0.81 mM MgSO4, pH 7.4). Protein concentration was measured by the Bradford method (Bradford, 1976) using Bio-Rad Reagent, with bovine serum albumin as a standard. Membranes were held on ice for up to one hour and used fresh, or flash-frozen and stored in liquid nitrogen.
Membranes were prepared similarly from 293, LM(tk-), and NIH-3T3 cells. To prepare membranes from baculovirus infected cells, 2×10^7 Sf21 cells were grown in 150 mm tissue culture dishes and infected with a high-titer stock of hY5BB3. Cells were incubated for 2-4 days at 27° C., no CO2 before harvesting and membrane preparation as described above.
Membrane suspensions were diluted in binding buffer supplemented with 0.1% bovine serum albumin to yield an optimal membrane protein concentration so that ^125I-PYY (or alternative radioligand such as ^125I-NPY, ^125I-PYY3-36, or ^125I-[Leu^31Pro^34]PYY) bound by membranes in the assay was less than 10% of ^125I-PYY (or alternative radioligand) delivered to the sample (100,000 dpm/sample=0.08 nM for competition binding assays). ^125I-PYY (or alternative radioligand) and peptide competitors were also diluted to desired concentrations in supplemented binding buffer. Individual samples were then prepared in 96-well polypropylene microtiter plates by mixing 125I-PYY (25 μL) (or alternative radioligand), competing peptides or supplemented binding buffer (25 μL), and finally, membrane suspensions (200 μL). Samples were incubated in a 30° C. water bath with constant shaking for 120 min. Incubations were terminated by filtration over Whatman GF/C filters (pre-coated with 1% polyethyleneimine and air-dried before use), followed by washing with 5 mL of ice-cold binding buffer. Filter-trapped membranes were impregnated with MeltiLex solid scintillant (Wallac, Turku, Finland) and counted for ^125I in a Wallac Beta-Plate Reader. Alternatively, incubations were carried out in GF/C filter plates (pre-coated with 1% polyethyleneimine and air-dried before use), followed by vacuum filtration and three washes of 300 μL of ice-cold binding buffer. 50 μL of UltimaGold (Packard) scintillant were added and counted for ^125I in a Wallac MicroBeta Trilux. […]

Structure (SMILES): CN(C)S(=O)(=O)NCCCCCNc1nc2c(s1)CCCc1ccc(F)cc1-2 [Example 2, 1-Aza-9-fluoro-4,5-dihydro-2-{5-(dimethyl-aminosulfonyl-amino)pentyl}amino-3-thia-benzo[e]azulene]
- Ki: 1.6 nM

Structure (SMILES): CN(C)S(=O)(=O)NCCCCNc1nc2c(s1)CCCc1ccc(F)cc1-2 [Example 6, 1-Aza-9-fluoro-4,5-dihydro-2-(4-(dimethyl-aminosulfonyl-amino)butyl)amino-3-thia-benzo[e]-azulene]
- Ki: 3.1 nM

Structure (SMILES): O=S(=O)(NCCCCNc1nc2c(s1)CCCc1ccc(F)cc1-2)c1cccc2ccccc12 [Example 8, 1-Aza-9-fluoro-4,5-dihydro-2-(4-(1-naphthyl)sulfonyl-amino)butylamino-3-thia-benzo[e]azulene]
- Ki: 94 nM

Structure (SMILES): CC(C)S(=O)(=O)NCCCCCNc1nc2c(s1)CCCc1ccc(F)cc1-2 [Example 13, 1-Aza-9-fluoro-4,5-dihydro-2-(5-isopropyl-sulfonylamino)-pentylamino-3-thia-benzo[e]azulene]
- Ki: 132 nM

Structure (SMILES): COc1ccc(S(=O)(=O)N[C@H]2CC[C@H](Nc3nc4c(s3)CCCc3ccc(F)cc3-4)CC2)cc1 [Example 36, trans-1-Aza-9-fluoro-4,5-dihydro-2-(4-(4-methoxy-phenyl)sulfonylamino)cyclohexylamino-3-thia-benzo[e]-azulene]
- Ki: 60 nM

Structure (SMILES): O=S(=O)(NC[C@H]1CC[C@H](Nc2nc3c(s2)CCCc2ccc(F)cc2-3)CC1)C(F)(F)F [Example 41, trans-1-Aza-9-fluoro-2-{4-trifluoromethylsulfonyl-aminomethyl}cyclohexylamino-4,5-dihydro-3-thiabenzo[e]-azulene]
- Ki: 30 nM

Structure (SMILES): CCS(=O)(=O)N[C@H]1CC[C@H](CNc2nc3c(s2)CCCc2ccc(F)cc2-3)CC1 [Example 52, trans-N2-(4-Ethylsulfonylamino)cyclohexylmethyl-9-fluoro-5,6-dihydro-4H-benzo[6,7]cyclohepta[d][1,3]-thiazol-2-amine]
- Ki: 1.7 nM

Structure (SMILES): CC(C)S(=O)(=O)N[C@H]1CC[C@H](CNc2nc3c(s2)CCCc2ccc(F)cc2-3)CC1 [Example 53, trans-1-Aza-9-fluoro-4,5-dihydro-2-{4-isopropyl-sulfonylamino}cyclohexylmethylamino-3-thia-benzo[e]-azulene]
- Ki: 3.2 nM

Structure (SMILES): O=S(=O)(NCCCCCNc1nc2c(s1)CCCc1ccc(F)cc1-2)c1cccnc1 [Example 55, 1-Aza-9-fluoro-4,5-dihydro-2-(5-(3-pyridyl)sulfonyl-amino)pentylamino-3-thia-benzo[e]azulene]
- Ki: 3.4 nM

Structure (SMILES): O=S(=O)(NCCCCNc1nc2c(s1)CCCc1ccc(F)cc1-2)c1cccnc1 [Example 56, 1-Aza-9-fluoro-4,5-dihydro-2-(4-(3-pyridyl)sulfonyl-amino)butylamino-3-thia-benzo[e]azulene]
- Ki: 26 nM

Structure (SMILES): COc1ccc(C)cc1S(=O)(=O)NCCOCCNc1nc2c(s1)CCCc1ccc(F)cc1-2 [Example 58, 1-Aza-9-fluoro-4,5-dihydro-2-{2-[2-(2-methoxy-5-methylphenyl)sulfonylamino]ethoxy}ethylamino-3-thia-benzo[e]azulene]
- Ki: 3 nM

Structure (SMILES): COP(=O)(N[C@H]1CC[C@H](CNc2nc3c(s2)CCCc2ccc(F)cc2-3)CC1)OC [Example 67, trans-N2-(4-Dimethylphosphonylamino)cyclohexylmethyl-9-fluoro-5,6-dihydro-4H-benzo[6,7]cyclohepta[d][1,3]-thiazol-2-amine]
- Ki: 5.5 nM

The remaining lines, values ahead:

- Ki: 2.3 nM
Structure (SMILES): O=S(=O)(NC[C@H]1CC[C@H](Nc2nc3c(s2)CCCc2ccc(F)cc2-3)CC1)c1cccnc1 [Example 59, trans-1-Aza-9-fluoro-4,5-dihydro-2-(4-(3-pyridyl)-sulfonylaminomethyl)cyclohexylamino-3-thia-benzo[e]-azulene]

- Ki: 31 nM
Structure (SMILES): COc1ccc2c(c1)-c1nc(NC[C@H]3CC[C@H](NS(C)(=O)=O)CC3)sc1CCO2 [Example 63, trans-1-Aza-4,5-dihydro-9-methoxy-2-{4-methylsulfonyl-amino}cyclohexylmethylamino-6-oxa-3-thia-benzo[e]azulene]

- Ki: 11.6 nM
Structure (SMILES): COc1cccc2c1OCCc1sc(NC[C@H]3CC[C@H](NS(C)(=O)=O)CC3)nc1-2 [Example 65, trans-N2-(4-Methylsulfonylamino)cyclohexylmethyl-7-methoxy-4,5-dihydro-benzo[2,3]oxepino[4,5-d][1,3]-thiazol-2-amine hydrochloride]

- Ki: 2 nM
Structure (SMILES): COc1cccc2c1OCCc1sc(NC[C@H]3CC[C@H](NS(=O)(=O)N(C)C)CC3)nc1-2 [Example 66, trans-1-Aza-4,5-dihydro-7-methoxy-2-{4-dimethylamino-sulfonylamino}cyclohexylmethylamino-6-oxa-3-thia-benzo[e]azulene]

- Ki: 4 nM
Structure (SMILES): CCOC(=O)N[C@H]1CC[C@H](CNc2nc3c(s2)CCCc2ccc(F)cc2-3)CC1 [Example 68, trans-N2-(4-Ethoxycarbonylamino)cyclohexylmethyl-9-fluoro-5,6-dihydro-4H-benzo[6,7]cyclohepta[d][1,3]-thiazol-2-amine hydrochloride]

- Ki: 4.1 nM
Structure (SMILES): CC(C)S(=O)(=O)NCCOCCNc1nc2c(s1)CCCc1ccc(F)cc1-2 [Example 69, 1-Aza-9-fluoro-4,5-dihydro-2-(2-(2-isopropyl-sulfonylamino)-ethoxy)ethylamino-3-thia-benzo[e]-azulene]

- Ki: 21 nM
Structure (SMILES): CS(=O)(=O)NCC1CCC(Nc2nc3c(s2)COc2ccccc2-3)CC1 (centres unmarked) [Example 70, 2-(4-Methylsulfonylaminomethyl)cyclohexylamino-4H-chromeno[4,3-d]thiazole]

- Ki: 2.5 nM
Structure (SMILES): COc1ccc2c(c1)CCCc1sc(NC[C@H]3CC[C@H](NS(C)(=O)=O)CC3)nc1-2 [Example 71, trans-1-Aza-4,5-dihydro-8-methoxy-2-(4-methylsulfonyl-amino)cyclohexylmethylamino-3-thia-benzo[e]azulene]

- Ki: 8.7 nM
Structure (SMILES): COc1ccc2c(c1)CCCc1sc(N[C@H]3CC[C@H](CNS(=O)(=O)C(C)C)CC3)nc1-2 [Example 73, trans-1-Aza-4,5-dihydro-2-(4-isopropylsulfonyl-aminomethyl)-cyclohexylamino-8-methoxy-3-thia-benzo[e]-azulene]

- Ki: 37 nM
Structure (SMILES): COc1cccc2c1OCCc1sc(N[C@H]3CC[C@H](CNS(C)(=O)=O)CC3)nc1-2 [Example 74, trans-1-Aza-4,5-dihydro-2-(4-methylsulfonylamino-methyl)-cyclohexylamino-7-methoxy-3-thia-benzo[e]-azulene]

- Ki: 36 nM
Structure (SMILES): CCC(=O)NC[C@H]1CC[C@H](Nc2nc3c(s2)CCCc2ccc(F)cc2-3)CC1 [Example 75, trans-1-Aza-4,5-dihydro-2-(4-ethylcarbonylamino-methyl)-cyclohexylamino-9-fluoro-3-thia-benzo[e]-azulene]
